Results as given in patent publication US20060019335A1, “Compositions and methods to promote c-IAP autodegradation” (priority 2004, published 2006).
Residues, ends and D or L forms follow the SMILES beside them. *: point of attachment. Cbz = O=C(OCc1ccccc1)*

Key:
[1] = biological target: T1, c-IAP2 (Homo sapiens, UniProt Q13489); experiment: Co-transfection of HeLa cells with c-IAP2 and Smac plasmids, Western blot; format: cell-based; conditions: MG132 added
T1 construct: produced not only the expected full length c-IAP1 or c-IAP2; expressed in transfected cells; host or cells: HeLa
T1 sequence (Q13489 whole entry): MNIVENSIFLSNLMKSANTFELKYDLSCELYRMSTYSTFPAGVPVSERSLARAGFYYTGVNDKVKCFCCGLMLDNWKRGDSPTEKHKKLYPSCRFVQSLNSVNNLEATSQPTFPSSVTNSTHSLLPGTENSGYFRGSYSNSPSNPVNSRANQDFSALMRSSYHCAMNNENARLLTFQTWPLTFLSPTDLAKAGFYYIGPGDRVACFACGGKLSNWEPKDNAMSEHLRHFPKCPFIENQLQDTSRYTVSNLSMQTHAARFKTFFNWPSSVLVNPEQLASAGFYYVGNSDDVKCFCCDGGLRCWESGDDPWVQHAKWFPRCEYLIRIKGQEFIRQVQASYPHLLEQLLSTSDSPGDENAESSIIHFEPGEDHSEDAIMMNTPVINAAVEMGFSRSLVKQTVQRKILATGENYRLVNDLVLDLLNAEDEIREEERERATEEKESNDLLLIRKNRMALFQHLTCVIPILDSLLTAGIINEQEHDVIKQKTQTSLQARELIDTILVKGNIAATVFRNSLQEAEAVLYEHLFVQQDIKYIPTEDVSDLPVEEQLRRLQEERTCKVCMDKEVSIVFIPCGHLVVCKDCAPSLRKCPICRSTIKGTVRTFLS
Description: (§1) Transfection of cultured Cells—HeLa cells were grown in DMEM supplemented with 10% fetal bovine serum. Cells were seeded onto 6-well plates the day before transfection and transfected at 70% confluence by using Lipofectin combined with Plus reagent (Invitrogen) according to the manufacture's protocols. The IAP expression plasmids (3 μg each for c-IAP1, c-IAP2 and XIAP, and 250 ng each for Livin αand Livin β) together with 2.5 μg of Smac expression plasmids or pcDNA3.1(−) blank plasmid were used for single-well transfection in the absence of antibiotics. The cells were harvested 12 hours after the transfection and lysed with 0.5% CHAPS in 20 mM HEPES (pH 7.4), 10 mM KCl, 1 mM MgCl2 and 1 mM DTT. The lysates were centrifuged and the protein concentrations of the supernatants were quantified by the modified Bradford method (36).
(§2) Western Blot analysis—Proteins were resolved by SDS-PAGE and transferred to nitrocellulose filters. The filters were blocked with 5% milk and probed with antibodies as indicated. The signals were visualized with the enhanced chemiluminescence method.
(§3) To investigate the effect of Smac polypeptide on IAP protein levels, HeLa cells were transfected with the expression vectors for Smac and various IAPs. Briefly, HeLa cells were either transfected with IAP alone (Lane 2, 4 and 6), or together with Smac polypeptide (Lane 3, 5 and 7), or with Smac polypeptide alone (Lane 1). Equal amounts of cell lysates (7 μg) were immunoblotted with either the HRP-conjugated anti-FLAG antibody (shown in the top panel) in order to detect N-terminal 3×FLAG tagged IAPs, or with the anti-c-Myc antibody (bottom panel) to detect C-terminal c-Myc tagged Smac. The ubiquitin fusion technique was used to secure the production of mature Smac protein with the expected N-terminal AVPI motif (6, 37).
(§4) Because it is known that the His^588 residue in the RING finger domain is important for the IAP E3 activity (22), this residue was mutated to test whether Smac stimulated the ubiquitylation-mediated degradation of both c-IAP1 and c-IAP2. In each case, His^588 in c-IAP1 and His^574 in c-IAP2 was mutated to Ala (H588A mutant and H574A mutant, respectively) and the results are depicted in FIGS. 2A and 2B. The c-IAP1 WT or H588A mutant plasmids together with either Smac WT or Smac ΔA mutant, or with pcDNA3.1 (−) blank plasmid were co-transfected into HeLa cells (FIG. 2A). The c-IAP2 WT or H574A mutant plasmids together with either Smac WT or Smac ΔA mutant, or with pcDNA3.1 (−) blank plasmid were co-transfected into HeLa cells (FIG. 2B). As controls, HeLa cells were also transfected with either Smac WT or ΔA plasmids together with the blank p3×FLAG-CMV-7 plasmid. The transfected cells were cultivated either in the absence (see lanes 1-7 of FIGS. 2A and 2B) or in the presence (see lanes 8-14 of FIGS. 2A and 2B) of MG132. Equal amounts of soluble proteins (7 μg) from the transfected cells were immunoblotted with either the HRP-conjugated anti-FLAG antibody (see top panel of FIGS. 2A and 2B) to detect N-terminal 3×FLAG tagged IAPs, or with the anti-c-Myc antibody (see middle panel of FIGS. 2A and 2B) to detect C-terminal c-Myc tagged Smac. The anti-Actin immunoblotting results were to show equal protein loading (see bottom panel of FIGS. 2A and 2B).

[2] = biological target: XIAP (Homo sapiens, UniProt P98170); experiment: Co-transfection of HeLa cells with XIAP and Smac plasmids, Western blot; format: cell-based; design: expressed in transfected cells; host or cells: HeLa; conditions: presence of MG132
XIAP, sequence (P98170 whole entry): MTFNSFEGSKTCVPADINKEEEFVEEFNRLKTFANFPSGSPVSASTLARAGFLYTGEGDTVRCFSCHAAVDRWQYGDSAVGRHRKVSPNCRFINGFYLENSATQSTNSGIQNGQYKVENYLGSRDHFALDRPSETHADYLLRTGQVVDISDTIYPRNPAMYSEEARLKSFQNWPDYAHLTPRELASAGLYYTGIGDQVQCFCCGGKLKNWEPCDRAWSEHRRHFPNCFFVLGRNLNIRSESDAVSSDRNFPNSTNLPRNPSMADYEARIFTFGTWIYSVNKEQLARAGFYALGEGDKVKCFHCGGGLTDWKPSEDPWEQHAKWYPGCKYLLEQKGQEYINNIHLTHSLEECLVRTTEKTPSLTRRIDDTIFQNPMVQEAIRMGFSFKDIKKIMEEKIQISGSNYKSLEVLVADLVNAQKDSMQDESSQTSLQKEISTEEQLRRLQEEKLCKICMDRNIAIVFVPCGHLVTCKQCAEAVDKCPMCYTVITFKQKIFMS
Description: as §1, §2, §3
It is known that XIAP is ubiquitylated by its own E3 activity when expressed in HEK 293T cells and that this auto-ubiquitylation and subsequent degradation is stimulated by Reaper (26). In the current study, XIAP transiently expressed in HeLa cells was ubiquitylated as well; however, mono-ubiquitylation rather than poly-ubiquitylation of XIAP was the major product (see FIG. 3A). Briefly, XIAP WT or H467A mutant plasmids together with either Smac WT or ΔA, or with pcDNA3.1(−) blank plasmid, were co-transfected into the HeLa cells. As controls, HeLa cells were also transfected with either Smac WT or ΔA plasmids together with the blank p3×FLAG-CMV-7 plasmid. The transfected cells were cultivated either in the absence (see lanes 1-7 of FIG. 3A) or in the presence (see lanes 8-14 of FIG. 3A) of MG132. Equal amounts of soluble proteins (7 μg) from the transfected cells were immunoblotted with either the HRP-conjugated anti-FLAG antibody (see top panel of FIG. 3A) to detect N-terminal 3×FLAG tagged IAPs, or with the anti-c-Myc antibody (see middle panel of FIG. 3A) to detect Smac. The anti-Actin immunoblotting results were to show equal protein loading (see bottom panel of FIG. 3A).

[3] = test system: c-IAP1; experiment: Co-transfection of HeLa cells with c-IAP1 and Smac plasmids, Western blot; format: cell-based, human; conditions: MG132 added to the culture medium
Description: as §1, §2, §3, §4

[4] = test system: c-IAP1; experiment: In vitro ubiquitylation assay of purified c-IAP1 and BIR deletion mutants; format: biochemical, human
Description: In vitro ubiquitylation assays—In vitro ubiquitylation assays were carried out as previously described (29). IAP proteins (200 nM) were incubated with or without Smac polypeptide for 2 hours at 30° C. in a reaction system containing 50 mM Tris-HCl (pH 7.5), 50 mM NaCl, 2 mM Mg-ATP, 20 μM mammalian ubiquitin, 100 nM rabbit ubiquitin-activating enzyme (E1) and 400 nM of recombinant human ubiquitin-conjugating enzymes (E2). The reactions were stopped by adding equal volumes of 2×SDS sample loading buffer followed by Western Blot analysis.
To determine whether Smac promotes auto-ubiquitylation of XIAP, purified XIAP (without tag) was incubated for 2 hours at 30° C. either with or without different concentrations of Smac or with Smac ΔA in the reconstituted ubiquitylation reaction system (Ub Mix) consisting of 50 mM Tris-HCl (pH 7.5), 50 mM NaCl, 2 mM Mg-ATP, 20 μM mammalian ubiquitin, 100 nM rabbit ubiquitin-activating enzyme (E1) and 400 nM UbCH6 (E2). The reactions were stopped by adding equal volumes of 2×SDS sample loading buffer and the products were subjected to SDS-PAGE followed by immunoblotting with anti-XIAP antibody. The purified XIAP was active in directing poly-ubiquitylation. But the auto-ubiquitylation of XIAP was not enhanced by Smac.
Smac ΔA and the peptide Smac-7M were used as negative controls. The reactions were stopped by adding equal volumes of 2×SDS sample loading buffer and the products were subjected to SDS-PAGE followed by immunoblotting with anti-c-IAP1 antibody. The arrows indicate the unmodified full length or deleted c-IAP1.
To verify this, stepwise deletion was performed of the first BIR (ΔBIR1, residues 1-161), the first two BIRs (ΔBIR1-2, residues 1-265), or all the three BIR domains (ΔBIR1-2-3, residues 1-339) from c-IAP1. All these mutants and the full-length wild type c-IAP1 were purified as a non-tagged form by using the pTYB11 Intein system (New England Biolabs).
Target sequence in this assay (Q13490 162-618): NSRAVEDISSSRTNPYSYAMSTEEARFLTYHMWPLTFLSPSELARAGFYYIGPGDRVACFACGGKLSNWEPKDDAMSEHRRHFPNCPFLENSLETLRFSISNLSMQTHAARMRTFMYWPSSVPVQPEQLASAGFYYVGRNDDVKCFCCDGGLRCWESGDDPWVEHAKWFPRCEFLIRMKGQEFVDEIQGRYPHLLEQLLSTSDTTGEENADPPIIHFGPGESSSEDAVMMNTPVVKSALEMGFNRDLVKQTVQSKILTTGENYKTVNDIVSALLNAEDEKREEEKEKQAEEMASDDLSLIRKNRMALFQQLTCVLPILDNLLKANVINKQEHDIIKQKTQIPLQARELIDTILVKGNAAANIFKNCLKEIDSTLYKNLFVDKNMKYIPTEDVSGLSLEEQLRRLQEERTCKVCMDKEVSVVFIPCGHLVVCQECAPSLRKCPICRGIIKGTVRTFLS

## CC(C)C[C@@H](C=O)NC(=O)[C@H](CC(C)C)NC(=O)[C@H](CC(C)C)NC(=O)OCc1ccccc1 [MG132, reference compound] (Cbz-Leu-Leu-Leu-aldehyde)
[1]
  level of c-IAP2: did not show such a significant change
[2]
  poly-ubiquitylated XIAP products: more poly-ubiquitylated XIAP products could be detected
[3]
  H588A c-IAP1 protein level: did not cause a significant increase
  amount of wild type c-IAP1: dramatically increased

## AVPIAQ (listed as Homo sapiens) [Smac-6]
[4]; as illustrated in the Examples
  stimulation of E3 activity of c-IAP compared with full length Smac: as effectively as the full length Smac polypeptide
[4]; peptides and controls, FIG. 7B
  E3 activity of c-IAP1ΔBIR1: effectively stimulated E3 activity
